In patent US20090192204A1, “N-(2-THIAZOLYL)-AMIDE DERIVATIVES AS GSK-3 INHIBITORS” (NOSCIRA, S.A., priority 2006, published 2009):

Columns and labels:
[1] = target: T1, Recombinant human glycogen synthase kinase 3β (Homo sapiens, UniProt P49841); experiment: GSK-3β inhibition (radiometric kinase assay, GS-2 peptide, 33P-ATP); assay type: biochemical; conditions: 0.5 h, remaining GSK-3 activity; for remaining activity at 25 µM: compound 25 μM; for remaining activity at 50 µM: compound 50 μM
T1 construct: purchased Upstate 14-306
Experimental: This assay is based on the protocol detailed by Upstate Cat. 14-306, making some slight modifications.
Recombinant human glycogen synthase kinase 3β is assayed in MOPS 11 mM pH7.4, EDTA 0.2 mM, EGTA 1.25 mM, MgCl2 26.25 mM and sodium orthovanadate 0.25 mM in the presence of 62.5 μM of Phospho-Glycogen Synthase Peptide-2 (GS-2) (TOCRIS, Cat. 1352), 0.5 μCi γ-^33P-ATP and unlabelled ATP (Sigma, A-9187) at a final concentration of 12.5 μM. After incubation for 30 minutes at 30° C., aliquots are spotted onto P81 phosphocellulose papers. Filters are washed four times for at least 10 minutes each with 1% phosphoric acid and counted with scintillation cocktail in a scintillation counter (PerkinElmer, Microbeta 1450). The activity of GSK-3 is tested at concentrations of 25 and 50 μM, in the presence of the compounds synthesized according to examples 1 to 7 and in the presence of another 6 compounds of formula (I).The results obtained are indicated in Table I (see below), in the form of percentage of GSK-3 activity.

SH-SY5Y cells = experiment: Cell survival by LDH release in SH-SY5Y cells; assay type: cell-based
Experimental: In addition to tau phosphorylation assays, quantification of cell death due to potential toxicity of compounds 1, 4, 5, 7, 8, 9, 10 and 11 described above is made by measuring LDH release (Roche, Cat 1 644 793). For the quantitative determination of cell survival, aliquots of the cell lysate are incubated with an equal volume of reaction mixture at room temperature for 20-30 min. The measure of absorbance is made in a microtiter plate reader with 490-492 nm filter (Cultek, Anthos 2010).
For compounds 4 and 5, the cell survival was measured at 24 hours treatment (see Table 2), and for compounds 1, 7, 8, 9, 10 and 11 was measured at 18 hours treatment (see Table 3), in SH-SY5Y cells. It is generally considered that a compound is considered toxic if less than 80% of the cells survive after treatment with a compound.

[2] = tested on: phosphorylated human Tau [pS396]; experiment: Inhibition of tau phosphorylation in SHSY5Y cells (Tau [pS396] sandwich ELISA); assay type: cell-based; design: key: “NEG” means no tau phosphorylation inhibition was detected at the referred concentration of compound (I); “POS” means that at the referred concentration tau phosphorylation inhibition was detected; conditions: 18 h
Experimental: Human neuroblastoma SHSY5Y cells were seeded in the presence of Minimum Essential Medium/Nutrient Mixture F-12. One day later, cells are treated with samples for 18 h at 37° C. After treatment, cultures are washed with phosphate-buffered saline and lysed for 30 min at 4° C. in extraction buffer (10 mM Tris-HCl, pH 7.4, 100 mM NaCl, 1 mM EDTA, 2 mM Na3VO4, 1% Triton X-100, 10% glycerol, 0.1% SDS, 0.5% Sodium deoxycholate, 1 mM PMSF and a protease inhibitor cocktail (Roche, Cat 1 697 498)).
The quantitative determination of phosphorylated human Tau is made taking aliquots of the cell lysate and using a phosphorylation-specific antibody against Tau [pS396] in a sandwich ELISA (Biosource, Cat KHB7031). Tau phosphorylation is estimated by measuring the absorbance at 450 nm in a microtiter plate reader (Cultek, Anthos 2010).
The effect of the synthesized compounds according to examples 1-7 and that of another 6 compounds of formula (I) is determined at different final concentrations, namely 50, 100 and 200 μM. Not all the compounds of formula (I) were tested at all the concentrations. The results are indicated in Table 1 (see below) as “NEG” and “POS”, respectively meaning “negative” and “positive”; “NEG” means no tau phosphorylation inhibition was detected at the referred concentration of compound (I); “POS” means that at the referred concentration tau phosphorylation inhibition was detected.

T1 sequence (P49841 whole entry): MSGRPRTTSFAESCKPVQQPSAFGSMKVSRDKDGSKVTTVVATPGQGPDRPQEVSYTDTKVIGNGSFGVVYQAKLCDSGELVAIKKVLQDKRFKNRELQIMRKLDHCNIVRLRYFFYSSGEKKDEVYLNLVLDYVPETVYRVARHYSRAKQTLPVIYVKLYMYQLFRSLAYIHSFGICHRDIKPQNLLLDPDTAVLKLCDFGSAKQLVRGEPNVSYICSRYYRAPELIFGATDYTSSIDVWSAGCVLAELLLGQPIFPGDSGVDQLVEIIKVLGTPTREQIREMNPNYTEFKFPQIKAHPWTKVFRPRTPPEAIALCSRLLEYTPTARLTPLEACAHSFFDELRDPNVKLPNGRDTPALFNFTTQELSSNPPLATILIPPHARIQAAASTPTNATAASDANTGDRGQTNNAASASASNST

| SMILES | remaining activity at 25 µM [1] [%] | remaining activity at 50 µM [1] [%] | % of cell viability (SH-SY5Y cells; 50 μM, 18 hours treatment) [%] | % of cell viability (SH-SY5Y cells; 100 μM, 18 hours treatment) [%] | Tau phosphorylation inhibition in cells ([2]; 50 μM) | Tau phosphorylation inhibition in cells ([2]; 100 μM) | Tau phosphorylation inhibition in cells ([2]; 200 μM) | % of cell viability (SH-SY5Y cells; 10 μM, 24 hours treatment) [%] | % of cell viability (SH-SY5Y cells; 25 μM, 24 hours treatment) [%] |
| --- | --- | --- | --- | --- | --- | --- | --- | --- | --- |
| COc1ccc2[nH]c(C(=O)Nc3ncc([N+](=O)[O-])s3)cc2c1 [Compound 10, 5-Methoxy-indole-2-carboxylic Acid (5-nitro-thiazol-2-yl)-amide] | 18.9 | 11 | 84.7 ± 2.7 | 90.6 ± 7.2 | POS | POS | – | – | – |
| O=C(CCCc1c[nH]c2ccccc12)Nc1ncc([N+](=O)[O-])s1 [Compound 1] | 37.4 | 18.9 | 103.2 ± 17 | 101.0 ± 17 | NEG | NEG | NEG | – | – |
| Cc1[nH]c2ccccc2c1CC(=O)Nc1ncc([N+](=O)[O-])s1 [Compound 9, 2-(2-Methyl-indol-3-yl)-N-(5-nitro-thiazol-2-yl)-acetamide] | 7.96 | 2.61 | 91.6 ± 5.9 | 90.8 ± 5.5 | POS | POS | – | – | – |
| O=C(CCc1c[nH]c2ccccc12)Nc1ncc([N+](=O)[O-])s1 [Compound 5] | 19.1 | 12.4 | – | – | POS | POS | POS | 87.8 ± 3.8 | 86.1 ± 18.4 |
| O=C(Nc1ncc([N+](=O)[O-])s1)c1n[nH]c2ccccc12 [Compound 11, 1H-Indazole-3-carboxylic Acid (5-nitro-thiazol-2-yl)-amide] | 34.8 | 18.2 | 95.3 ± 3.3 | 93.9 ± 5.6 | NEG | NEG | – | – | – |
| Cn1cc(CC(=O)Nc2ncc([N+](=O)[O-])s2)c2ccccc21 [Compound 8, 2-(1-Methyl-indol-3-yl)-N-(5-nitro-thiazol-2-yl)-acetamide] | 17.8 | 9.27 | 103 ± 7.7 | 85.5 ± 6.5 | POS | POS | – | – | – |
| O=C(Nc1ncc([N+](=O)[O-])s1)c1c[nH]c2ccccc12 [Compound 3] | 73.8 | 53.4 | – | – | – | – | – | – | – |
| O=C(Cc1c[nH]c2ccccc12)Nc1nccs1 [Compound 13] | 70.9 | 42.7 | – | – | – | – | – | – | – |
| COc1ccc2[nH]cc(CC(=O)Nc3ncc([N+](=O)[O-])s3)c2c1 [Compound 7, 2-(5-Methoxy-indol-3-yl)-N-(5-nitro-thiazol-2-yl)-acetamide] | 43.9 | 32.2 | 99.8 ± 8.6 | 92.9 ± 11.1 | NEG | POS | – | – | – |
| O=C(CCCc1c[nH]c2ccccc12)Nc1nccs1 [Compound 2] | 59.6 | 39 | – | – | – | – | – | – | – |
| O=C(Cc1c[nH]c2ccccc12)Nc1ncc([N+](=O)[O-])s1 [Compound 4, 2-(Indol-3-yl)-N-(5-nitro-thiazol-2-yl)-acetamide] | 6.29 | 8.51 | – | – | NEG | POS | POS | 91.7 ± 1.9 | 90 ± 3.7 |
| O=C(Cc1c[nH]c2ccccc12)Nc1ncc(Cl)s1 [Compound 6] | 29.4 | 14.6 | – | – | – | – | – | – | – |
| Cc1cnc(NC(=O)Cc2c[nH]c3ccccc23)s1 [Compound 12] | 49.1 | 37.1 | – | – | – | – | – | – | – |
